The source of these data is patent publication US12263248B2, “Compounds and compositions for intracellular delivery of therapeutic agents” (ModernaTX, Inc., priority 2018, dated 2025).

The nature of series [1]: Lipid clearance: lipid level in mouse liver tissue (LC-MS/MS). Format: in vivo. As to conditions: Table 3E, mouse liver.
Description: Quantification of Lipid by LC-MS/MS: Liver samples were homogenized following addition of 19 eq. (w/v) of water (DF=20). Protein was precipitated and analyzed against calibration standards prepared in matching blank. Chromatographic separation and quantification was accomplished with a LC-MS/MS System. Samples were injected and separated via HPLC A triple-quadrupole MS/MS system operated in positive ion mode was used for signal detection.
Series [2] is described as follows: Encapsulation efficiency of RNA (QUANT-IT RIBOGREEN RNA assay). Format: physicochemical. As to conditions: for EE (%): Table 1A. Put shortly:
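RiboGreen fluorescence (ex ~480, em ~520 nm) compared between intact samples and Triton X-100-lysed samples after 15 min at 37 °C in TE buffer, pH 7.5. Percent free RNA is the blank-corrected intact/disrupted ratio.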

The nature of series [3]: Apparent (surface) pKa of the LNP formulation (TNS assay). Format: physicochemical. As to conditions: for pKa: Table 1A. Put shortly: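 LNP (0.04 mg/mL mRNA) mixed with TNS reagent in 21 buffers spanning about pH 3-12, in triplicate; fluorescence plotted against pH as sigmoidal curve. Apparent pKa taken as […] curve inflection point; validated in 1× PBS and 20 mM Tris w/8% sucrose.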

The test system of series [4] is luciferase (Luc) mRNA. The series can be described thus: Luc expression, whole body bioluminescence after intravenous administration to mice. Format: in vivo. The following applies: for 6 h BLI Lipid/MC3: Table 3E, intravenous; for Total Flux 3 hours / Total Flux 6 hours / Total Flux 24 hours: mice, i.v., 0.5 mg/kg, Luc mRNA. Put shortly: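 Luc mRNA nanoparticle formulations given intravenously to mice (n=6) at 0.5 mg/kg; whole-body bioluminescence imaged at 3, 6 and 24 h. CD-1 mice received IP D-luciferin (200 μL of 15 mg/mL) 15 min before imaging; total flux quantified by region of interest.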

Series [5] in a line: Particle size and polydispersity index of nanoparticle compositions (Zetasizer Nano ZS). The class given is physicochemical. Put shortly:
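Particle size and PDI were measured on a Zetasizer Nano ZS with the nanoparticle compositions dispersed in 1×PBS.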

Series [6] relates to luciferase (Luc) mRNA. Description: Luc expression in liver, lung, spleen and femur 6 hours after intravenous administration. Format: in vivo. The following applies: mice, intravenous, 0.5 mpk. Put shortly: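 LNP-formulated mRNA given IV to mice (n=3) at 0.5 mpk; at 6 h, bioluminescence imaged ex vivo 15 min after IP D-luciferin (15 mg/mL, 200 μL), organs imaged within 25 min. Values are total flux by region of interest.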

For series [7], the system named is luciferase (Luc) mRNA. The series can be described thus: Luc expression (total flux) after intramuscular administration. The class given is in vivo, mice. As to conditions: 6 hours after intramuscular administration. Put shortly: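 Mice given a single intramuscular dose of lipid nanoparticle formulations carrying modified Luc mRNA, alone or with H10 mRNA, at 0.001 or 0.01 mpk total. Luciferase expression recorded as total flux.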

The test system of the next series is luciferase mRNA. The series can be described thus: Luciferase expression after subcutaneous administration to mice. Format: in vivo, female CD-1 mice. The following applies: 0.5 mpk, relative to MC3. The procedure: The effect of the lipids of the disclosure on protein expression upon subcutaneous administration was studied. Formulations containing lipids of the disclosure and an mRNA expressing luciferase or hEPO were administered subcutaneously to female CD-1 mice at 0.5 mpk. Expression levels were obtained via whole body luminescent imaging (BLI) at 3, 6 and 24 hours after injection and expression levels in liver, spleen and at the injection site were evaluated ex vivo after 24 hours. […] See also Tables 35 and 36, and FIGS. 19 and 27.
Table 35 summarizes the luciferase expression levels using various nanoparticle compositions of the disclosure, and the luciferase expression levels using various nanoparticle compositions of the disclosure as compared to the luciferase expression level using an MC3 formulation after subcutaneous administration, as described above.

A further series has as its system IL-6, IP-10. Description: Cytokine induction in mice upon intravenous administration. The class given is in vivo. Set-up: Cytokine induction IL-6 / Cytokine induction IP-10: unit not given here. The following applies: intravenous, 0.5 mpk, 6 hours. The source says:
The introduction of foreign material into a mammalian body induces an innate immune response that promotes cytokine production. Such immune responses to, for example, nanoparticle compositions including therapeutic and/or prophylactics, are undesirable. The induction of certain cytokines is thus measured to evaluate the […] of nanoparticle compositions. The concentrations of various cytokines in mice upon intravenous administration of nanoparticle compositions presented in Table 1A at a dosage of 0.5 mpk was measured at 6 hours. The standard MC3 formulation and a PBS control were also tested. As is evident in Table 7, IL-6 induction was highest for compositions including Compounds 1, 3, 9, 19, and 26, while IP-10 induction was highest for compositions including Compounds 3, 4, 7, 20, and 26. IL-6 induction was lowest for compositions including Compounds 4, 11, 12, and 28. IP-10 induction was lowest for compositions including Compounds 10, 11, 12, 13, 15, 17, and 18.

[8] abbreviates: Table 1A, lipid:DSPC:cholesterol:PEG-DMG 50:10:38.5:1.5 mol %.
The mark [9] stands for this setting: Table 1E, compositions for subcutaneous administration.

Consider `CCCCCCCCC(CCCCCCCC)OC(=O)CCCCCCCN(CCO)C(C)CCCCCCCCOC(=O)CCCCCCC` (stereo not drawn) [Compound 161, Heptadecan-9-yl 8-((2-hydroxyethyl)(10-(octanoyloxy)decan-2-yl)amino)octanoate], for which, in series [1], the “% Remaining dose at 6 h” value was found to be 0.203% and the “% Remaining dose at 24 h” value was 0%. Besides, the “EE (%)” value in series [2] stood at 94.3%. Further, the pKa in series [3] stood at 6.08. Moreover, the “6 h BLI Lipid/MC3” value in the series on luciferase (Luc) mRNA [4] was 0.12. The compound also returned a PDI in series [5] (Table 1A) of 0.09. Moreover, the “Size (nm)” value in [5] (setting [8]) is 67.6 nm.

In the case of `CCCCCCCCCOC(=O)CCCCCCCN(CCO)CCCCCCCC(=O)OC(COCCCCCC)COCCCCCC` [Compound 183, 1,3-Bis(hexyloxy)propan-2-yl 8-((2-hydroxyethyl)(8-(nonyloxy)-8-oxooctyl)amino)octanoate], in series [1], the “% Remaining dose at 6 h” value was found to be 0.076% and the “% Remaining dose at 24 h” value was found to be 0%. Also, the “EE (%)” value in series [2] was 32.3%. Further, the pKa in series [3] was found to be 6.54. In addition, the “6 h BLI Lipid/MC3” value in the series with luciferase (Luc) mRNA [4] turned out to be 0.031. The compound also showed a PDI in series [5] (Table 1A) of 0.24. For the same compound, in series [5] (setting [8]), the “Size (nm)” value is reported as 245.3 nm.

For the compound `CCCCCCCCCOC(=O)CCCCCCCN(CCCCCCCC(=O)OC(CCCCCCCC)CCCCCCCC)CC(O)CO` (stereo not drawn) [Compound 69, Heptadecan-9-yl 8-((2,3-dihydroxypropyl)(8-(nonyloxy)-8-oxooctyl)amino)octanoate], in the series with luciferase (Luc) mRNA [6], the “Total Flux Liver” value was 2.24E+08, the “Total Flux Lung” value was 7.34E+05 and the “Total Flux Spleen” value turned out to be 2.54E+06. Further, in the series with luciferase (Luc) mRNA [7] (Table 5B, 0.01 mpk), the “Total flux (p/s) 0.01 mpk Dose” value was found to be 8.83E+06 p/s. Further, the “EE (%)” value in series [2] worked out at 98.4%. Further, the “% EE” value in [2] (setting [9]) is recorded as 99%. Besides, the pKa in [3] worked out at 6.92. Further, the “App. pKa” value in series [3] (Table 3F) turned out to be 6.95. Also, in the series on luciferase (Luc) mRNA [4], the “Total Flux 3 hours” value was 3.38E+09, the “Total Flux 6 hours” value is recorded as 7.95E+09 and the “Total Flux 24 hours” value came out at 1.15E+08. In series [5] (Table 1A), this compound came in with a PDI of 0.13. Moreover, in series [5] (setting [8]), the “Size (nm)” value came out at 77.2 nm. Moreover, in [5] (setting [9]), the PDI worked out at 0.09 and the “Size (nm)” value was 71.8 nm. The “Novel lipid/MC3 expression ratio, 6 hr. time point, s.c. Luc 0.5 mpk” value in the series with luciferase mRNA was 0.14.

Take `CCCCCCCCCCCCN(CCO)CCCCCCCCCCCC(=O)OC` [Compound 137, Methyl 12-(dodecyl(2-hydroxyethyl)amino)dodecanoate]: in the series with luciferase (Luc) mRNA [6] (femur), the “Total Flux Femur” value came out at 2.02E+04. Moreover, in the series with luciferase (Luc) mRNA [6], the “Total Flux Liver” value is 6.48E+04, the “Total Flux Lung” value is recorded as 1.66E+04 and the “Total Flux Spleen” value stood at 1.32E+05. For the same compound, the “Total flux, 0.001 mpk Dose” value in the series with luciferase (Luc) mRNA [7] (0.001 mpk, Luc mRNA and H10 mRNA) was determined as 7.57E+04 p/s. In the series on luciferase (Luc) mRNA [7] (0.01 mpk, Luc mRNA and H10 mRNA), the “Total flux, 0.01 mpk Dose” value was found to be 8.09E+04 p/s. Also, in the series on IL-6, IP-10, the “Cytokine induction IL-6” value was 130.82 and the “Cytokine induction IP-10” value is recorded as 234.35. The pKa in [3] amounted to 7.06. In the series on luciferase (Luc) mRNA [4], the “Total Flux 3 hours” value was 3.77E+05, the “Total Flux 6 hours” value came to 5.02E+05 and the “Total Flux 24 hours” value came to 4.49E+05.

Take `CCCCCCCCCC(C)(O)CCCCCCCCN(CCO)CCCCCCCC(=O)OC(CCCCCCCC)CCCCCCCC` (stereo not drawn) [Compound 171, Heptadecan-9-yl 8-((9-hydroxy-9-methyloctadecyl)(2-hydroxyethyl)amino)octanoate]: in series [1], the “% Remaining dose at 6 h” value is recorded as 51.0% and the “% Remaining dose at 24 h” value worked out at 35.5%. For the same compound, the “EE (%)” value in [2] is reported as 85.0%. In [3], the pKa was 6.48. The “6 h BLI Lipid/MC3” value with luciferase (Luc) mRNA [4] was 2.26. The compound further registered a PDI in series [5] (Table 1A) of 0.14. The “Size (nm)” value in series [5] (setting [8]) came out at 100.5 nm.

Regarding `CCCCCCCCC(CCCCCCCC)C(=O)OCCCCCCCN(CCO)C(C)CCCCCCCCOC(=O)CCCCCCC` (stereo not drawn) [Compound 162, 7-((2-Hydroxyethyl)(10-(octanoyloxy)decan-2-yl)amino)heptyl 2-octyldecanoate], in series [1], the “% Remaining dose at 6 h” value is recorded as 0.283% and the “% Remaining dose at 24 h” value was found to be 0%. Moreover, in [2], the “EE (%)” value is 94.1%. Also, the pKa in [3] is listed as 6.08. Moreover, the “6 h BLI Lipid/MC3” value in the series with luciferase (Luc) mRNA [4] is on record as 0.28. Moreover, in series [5] (Table 1A), the PDI stood at 0.14. Besides, the “Size (nm)” value in [5] (setting [8]) is 72.7 nm.

Take `CCCCCCCOC(=O)CCCCCCCCCN(CCO)CCCCCCCCCC(=O)OC(CCCCCC)CCCCCC` [Compound 186, Heptyl 10-((2-hydroxyethyl)(10-oxo-10-(tridecan-7-yloxy)decyl)amino)decanoate]: in [1], the “% Remaining dose at 6 h” value was 0.051% and the “% Remaining dose at 24 h” value is recorded as 0%. For the same compound, the “EE (%)” value in series [2] came to 87.2%. The pKa in series [3] is recorded as 6.33. The “6 h BLI Lipid/MC3” value in the series with luciferase (Luc) mRNA [4] was 1.13. The PDI in series [5] (Table 1A) came out at 0.17. Further, in series [5] (setting [8]), the “Size (nm)” value stood at 92.2 nm.

For the compound `CCCCCCCCCCCOC(=O)CCCCCN(CCO)CCCCCC(=O)OC(CCCCCCCCCC)CCCCCCCCCC` [Compound 185, Henicosan-11-yl 6-((2-hydroxyethyl)(6-oxo-6-(undecyloxy)hexyl)amino)hexanoate], in [1], the “% Remaining dose at 6 h” value is given as 33.8% and the “% Remaining dose at 24 h” value turned out to be 29.3%. Further, the “EE (%)” value in series [2] was found to be 98.3%. In series [3], the pKa was 6.77. The “6 h BLI Lipid/MC3” value with luciferase (Luc) mRNA [4] amounted to 0.87. In addition, in series [5] (Table 1A), the PDI is reported as 0.14. Moreover, the “Size (nm)” value in [5] (setting [8]) turned out to be 69.6 nm.

`CCCCCCCCC(CCCCCCCC)OC(=O)CCCCCCCN(CCO)CCCCCCCC(=O)O[C@H](C)CCCCCCCC` [Compound 172, (R)-Decan-2-yl 8-((8-(heptadecan-9-yloxy)-8-oxooctyl)(2-hydroxyethyl)amino)octanoate]: in series [1], the “% Remaining dose at 6 h” value is 17.4% and the “% Remaining dose at 24 h” value was 3.24%. The “EE (%)” value in [2] is on record as 95.4%. Moreover, in [3], the pKa turned out to be 6.40. Further, in the series with luciferase (Luc) mRNA [4], the “6 h BLI Lipid/MC3” value stood at 1.72. In [5] (Table 1A), this compound displayed a PDI of 0.13. Moreover, the “Size (nm)” value in series [5] (setting [8]) worked out at 77.3 nm.

Consider `CCCCCCCCCOC(=O)CCCCCCCN(CCO)CCCCCCCC(=O)OC(CCC1CC1CCCC)CCC1CC1CCCC` (stereo not drawn) [Compound 160, 1,5-Bis(2-butylcyclopropyl)pentan-3-yl 8-((2-hydroxyethyl)(8-(nonyloxy)-8-oxooctyl)amino)octanoate], for which, in series [1], the “% Remaining dose at 6 h” value was 0.056% and the “% Remaining dose at 24 h” value is on record as 0%. For the same compound, the “EE (%)” value in series [2] was 94.0%. Further, the pKa in [3] is given as 6.54. Further, the “6 h BLI Lipid/MC3” value in the series with luciferase (Luc) mRNA [4] is given as 0.29. For the same compound, the PDI in [5] (Table 1A) worked out at 0.15. In [5] (setting [8]), the “Size (nm)” value came to 89.0 nm.
